Experimental findings from patent publication US20100286024A1, “Insulinotropic compounds and uses thereof” (priority 2005, published 2010) are described below.

One data set deals with GLP-1 receptor (mouse) (UniProt O35659).
Data set [1] can be described thus: Control study: chemical stability in PBS/triethanolamine without DPP-IV. To be noted: PBS/TEthA, pH 7.5, 37°, no DPP-IV; for remaining at 22 h / remaining at 47 h: PBS/triethanolamine solution without DPP-IV, read-out: percentage of peptide remaining. Type of data set: physicochemical. On the procedure: In the control study, peptides were incubated with PBS/triethanolamine solution in the absence of DPP-IV to measure their chemical stability.

In another data set the target is DPP-IV (Homo sapiens, UniProt P27487). The data set can be described thus: Dipeptidyl Peptidase IV (DPP-IV) digestion, stability by RP-HPLC (Example 10). Particulars: DPP-IV (isolated peptidase), PBS/TEthA, pH 7.5, 37°, DPP-IV, read-out: percentage of analogue remaining. In kind it is in vitro ADME.
The next data set has as its system beta TC-6 cell line. The data set can be described thus: Insulin release assay (insulin ELISA). In kind it is cell-based, mouse. To be noted: for Insulin release: 5 mM glucose, 30 minutes, Beta-TC-6 cells, cells only 1.37-3.67; for Activity of 3 μM of each peptide as percentage of insulin release by cells only / Activity of 15 μM of each peptide as percentage of insulin release by cells only: cells alone=100%. Here is the method:
This was derived from a pancreatic tumor (insulinoma) arising in a transgenic mouse.
Beta-TC-6 cells were purchased from A.T.C.C. (A.T.C.C. number CCL-11506; Manassas, Va., U.S.A.). Beta-TC-6 cells were cultured in Dulbecco's Modified Eagle's medium supplemented with 15% (v/v) heat-inactivated foetal bovine serum, 1% (v/v) glutamine, 0.45% (w/v) glucose and 0.15% (w/v) sodium bicarbonate at 37° C. in a humidified 5% CO2 atmosphere. Beta-TC-6 cells form islands and the monolayer never becomes confluent; cells were passaged at 70% confluence (7 days from seeding) at a subcultivation ratio of 1:4. The monolayer was disrupted from the surface of the culture flask with 0.25% (w/v) Trypsin-0.53 mM EDTA.
Beta-TC-6 cells were cultured in 12 well plates for between 4-8 days prior to use. Cells were cultured in Krebs-Ringer (10 mM Hepes, pH 7.4, 136 mM NaCl, 4.7 mM KCl and 1.25 mM MgSO4) supplemented with 5 mM glucose for 1 hr at 37° C. in a humidified 5% CO2 atmosphere. This medium was removed, cells washed with Krebs-Ringer. Beta-TC-6 cells were then cultured in 1 ml per well of Krebs-Ringer supplemented with 5 mM glucose and 0, 0.12, 0.6, 3 and 15 μM of peptide in duplicate for 30 minutes at 37° C. in a humidified 5% CO2 atmosphere. Medium was removed, diluted 1:5, and insulin concentration determined using an insulin ELISA kit (Mercodia, Uppsala, Sweden) according to the manufacturer's protocol. Beta-TC-6 cells were washed three times with ice-cold PBS and extracted into 0.5 ml lysis buffer (62.5 mM Tris, pH 7.5, and 1%, v/v, SDS) per well. Protein concentration was determined by Lowry assay. […] Only single-sided p values are shown.
On the technique in general: In an ELISA, binding on a coated surface is turned into a signal by an enzyme label.

The subject of another data set is dipeptidyl peptidase IV. Nature of the data set: DPP-IV assay (Example 5), HPLC/ES-MS. In kind it is in vitro ADME. Particulars: 11 milliunits DPP-IV, 50 mM triethanolamine buffer pH 7.8, 37° C., HPLC and ES-MS. Here is the method: J. Bailey, F. P. M. O'Harte, and P. R. Flatt. […] Biological Chemistry. 385, pp 169-177.
Briefly, 100-200 microgams of each peptide was dissolved in 0.5 ml of 50 mM triethanolamine buffer, pH 7.8. To this was added a 10 microlitre solution of 11 milliunits DPP-IV (Sigma) and the solutions incubated at 37° C. for up to 42 hours. […] The incubations were terminated by addition of 5 microlitres TFA to each tube and 50 microlitre of each were injected onto a reversed phase 4.6×250 mm C18 HPLC column, eluting a gradient of 20%-45% acetonitrile in 0.1% TFA/water over 25 minutes. […] After 42 hours, the 2 analogues slowly degraded to a product that gave a mass spectrum consistent with the mass of the 9-37 sequence, indicating longer term instability of the urea bond. This represented as much as 15% of the product by HPLC. This degradation appeared to be non-DPP-IV related, since samples without enzyme gave the same profile.

Data set [2] concerns the target L-His-NH-NH-CH2-C(O)-Glu9-37 (SP006) (Homo sapiens).
Data set [3] addresses Native GLP-1 7-37 (Homo sapiens).
Data set [4] has as its target L-His-L-Ala-NH-NH-CH2-C(O)-Glu9-37 (SP007) (Homo sapiens).
In data set [5] the target is L-His-NH-NH-CH(CH3)-C(O)-Glu9-37 (SP008) (Homo sapiens).
In data set [6] the target is L-His-L-NH-CH(CH3)-CH2-NH-O-CH2-C(O)-Glu9-37 (SP005) (Homo sapiens).

No end group written: not given here.

Sequence of DPP-IV (P27487 whole entry, species assumed): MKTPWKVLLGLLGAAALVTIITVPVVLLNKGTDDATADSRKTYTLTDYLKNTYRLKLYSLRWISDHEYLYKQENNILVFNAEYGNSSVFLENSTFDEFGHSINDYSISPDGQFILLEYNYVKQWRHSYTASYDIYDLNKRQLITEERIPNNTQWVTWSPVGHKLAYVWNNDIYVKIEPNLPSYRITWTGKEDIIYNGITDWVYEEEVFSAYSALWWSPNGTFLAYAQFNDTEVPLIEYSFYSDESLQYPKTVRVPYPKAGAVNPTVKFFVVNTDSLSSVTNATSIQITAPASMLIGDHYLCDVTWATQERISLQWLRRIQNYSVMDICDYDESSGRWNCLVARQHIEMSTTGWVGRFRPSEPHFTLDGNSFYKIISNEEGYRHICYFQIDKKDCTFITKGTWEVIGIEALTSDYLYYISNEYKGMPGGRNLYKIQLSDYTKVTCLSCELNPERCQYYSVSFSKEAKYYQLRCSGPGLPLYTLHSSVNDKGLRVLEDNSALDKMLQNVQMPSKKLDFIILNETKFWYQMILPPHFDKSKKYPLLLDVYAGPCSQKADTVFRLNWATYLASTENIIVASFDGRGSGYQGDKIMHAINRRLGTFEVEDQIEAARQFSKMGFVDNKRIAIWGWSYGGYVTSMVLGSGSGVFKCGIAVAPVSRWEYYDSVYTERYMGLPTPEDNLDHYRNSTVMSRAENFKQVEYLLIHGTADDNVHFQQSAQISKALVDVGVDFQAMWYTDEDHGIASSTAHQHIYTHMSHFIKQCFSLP

Consider “GLP-1 NH2-D-His-D-Ala-Urea-9-37 (SP002) (peptide)”, for which the Activity of 15 µM of each peptide as percentage of insulin release by cells only (beta TC-6 cells) (% of insulin release by cells only) with GLP-1 receptor (mouse) was 254.

Regarding “L-His-NH-NH-CH(CH3)-C(O)-Glu9-37 (SP008) (peptide)”, the Activity of 15 µM of each peptide as percentage of insulin release by cells only (beta TC-6 cells) (% of insulin release by cells only) with GLP-1 receptor (mouse) was 170.

In general, share remaining refers to the share of the starting amount still present when the sample was taken. As for `CC[C@H](C)[C@H](NC(=O)[C@H](Cc1ccccc1)NC(=O)[C@H](CCC(=O)O)NC(=O)[C@H](CCCCN)NC(=O)[C@H](C)NC(=O)[C@H](C)NC(=O)[C@H](CCC(N)=O)NC(=O)CNC(=O)[C@H](CCC(=O)O)NC(=O)[C@H](CC(C)C)NC(=O)[C@H](Cc1ccc(O)cc1)NC(=O)[C@H](CO)NC(=O)[C@H](CO)NC(=O)[C@@H](NC(=O)[C@H](CC(=O)O)NC(=O)[C@H](CO)NC(=O)[C@@H](NC(=O)[C@H](Cc1ccccc1)NC(=O)[C@@H](NC(=O)CNC(=O)[C@H](CCC(=O)O)NC(=O)[C@H](C)NNC(=O)[C@@H](N)Cc1c[nH]cn1)[C@@H](C)O)[C@@H](C)O)C(C)C)C(=O)N[C@@H](C)C(=O)N[C@@H](Cc1c[nH]c2ccccc12)C(=O)N[C@@H](CC(C)C)C(=O)N[C@H](C(=O)N[C@@H](CCCCN)C(=O)NCC(=O)N[C@@H](CCCNC(=N)N)C(=O)NCC(=O)O)C(C)C` [SP008, L-His-NH—NH—CH(CH3)—C(O)-Glu9-37], the fraction remaining at 22 h in data set [1] was 91%. Also, the share remaining at 47 h in data set [1] (47 hr) is 77%. Further, at DPP-IV, the amount remaining at 22 h was found to be 95% and the fraction remaining at 47 h is 93%. In the data set on beta TC-6 cell line (3 μM peptide), the Insulin release was 4.35 ng/min/mg and the “Activity of 3 μM of each peptide as percentage of insulin release by cells only” value is listed as 112 ± 44%. Besides, in the data set on beta TC-6 cell line (15 μM peptide), the Insulin release is recorded as 6.20 ng/min/mg and the “Activity of 15 μM of each peptide as percentage of insulin release by cells only” value stood at 170 ± 48%.

For the compound HAEGTFTSDVSSYLEG [GLP-1 7-22], in the data set on dipeptidyl peptidase IV, the “state of peptide after 18 hr incubation with DPP-IV” value is “completely cleaved”.

Compound “L-His-NH-NH-CH2-C(O)-Glu9-37 (SP006) (peptide)” came in with an Activity of 15 µM of each peptide as percentage of insulin release by cells only (beta TC-6 cells) (% of insulin release by cells only) in the data set with GLP-1 receptor (mouse) of 330.

With `CC[C@H](C)[C@H](NC(=O)[C@H](Cc1ccccc1)NC(=O)[C@H](CCC(=O)O)NC(=O)[C@H](CCCCN)NC(=O)[C@H](C)NC(=O)[C@H](C)NC(=O)[C@H](CCC(N)=O)NC(=O)CNC(=O)[C@H](CCC(=O)O)NC(=O)[C@H](CC(C)C)NC(=O)[C@H](Cc1ccc(O)cc1)NC(=O)[C@H](CO)NC(=O)[C@H](CO)NC(=O)[C@@H](NC(=O)[C@H](CC(=O)O)NC(=O)[C@H](CO)NC(=O)[C@@H](NC(=O)[C@H](Cc1ccccc1)NC(=O)[C@@H](NC(=O)CNC(=O)[C@H](CCC(=O)O)NC(=O)CONC[C@H](C)NC(=O)[C@@H](N)Cc1c[nH]cn1)[C@@H](C)O)[C@@H](C)O)C(C)C)C(=O)N[C@@H](C)C(=O)N[C@@H](Cc1c[nH]c2ccccc12)C(=O)N[C@@H](CC(C)C)C(=O)N[C@H](C(=O)N[C@@H](CCCCN)C(=O)NCC(=O)N[C@@H](CCCNC(=N)N)C(=O)NCC(=O)O)C(C)C` [SP005, L-His-L-NH—CH(CH3)—CH2—NH—O—CH2—C(O)-Glu9-37], the share remaining at 22 h in data set [1] came to 95%. The share remaining at 47 h in [1] (47 hr) stood at 89%. Besides, on DPP-IV, the fraction remaining at 22 h amounted to 95% and the amount remaining at 47 h was 93%. In addition, in the data set with beta TC-6 cell line (3 μM peptide), the Insulin release amounted to 2.25 ng/min/mg and the “Activity of 3 μM of each peptide as percentage of insulin release by cells only” value is 171 ± 53%. In the data set on beta TC-6 cell line (15 μM peptide), the Insulin release turned out to be 5.26 ng/min/mg and the “Activity of 15 μM of each peptide as percentage of insulin release by cells only” value is recorded as 358 ± 128%.

In the data set with GLP-1 receptor (mouse), “L-His-L-Ala-NH-NH-CH2-C(O)-Glu9-37 (SP007) (peptide)” returned an Activity of 15 µM of each peptide as percentage of insulin release by cells only (beta TC-6 cells) (% of insulin release by cells only) of 235.

In the case of “Glu Gly Thr Phe Thr Ser Asp Val Ser Ser Tyr Leu Glu Gly Gln Ala Ala Lys Glu Phe Ile Ala Trp Leu Val Lys Gly Arg Gly (EGTFTSDVSSYLEGQAAKEFIAWLVKGRG; listed as Homo sapiens) [Native GLP-1 9-37, reference compound]”, in the data set with beta TC-6 cell line (15 μM peptide), the Insulin release was 3.25 ng/min/mg and the “Activity of 15 μM of each peptide as percentage of insulin release by cells only” value is listed as 123 ± 17%.

Turning to “GLP-1 NH2-L-His-L-Ala-urea-9-37 (SP001) (peptide)”, the Activity of 15 µM of each peptide as percentage of insulin release by cells only (beta TC-6 cells) (% of insulin release by cells only) with GLP-1 receptor (mouse) amounted to 100.

For the compound “dipeptidyl peptidase IV (DPP-IV) (Sigma) (enzyme)”, the percentage of each analogue remaining after incubation with DPP-IV (RP-HPLC), 47 hr in data set [2] is 87 % remaining; in data set [5] it was 93 % remaining; in [6], 93 % remaining. In addition, the percentage of each analogue remaining after incubation with DPP-IV (RP-HPLC), 22 hr in data set [3] and in data set [4] was below 5 % remaining each time.

As for “L-His-L-NH-CH(CH3)-CH2-NH-O-CH2-C(O)-Glu9-37 (SP005) (peptide)”, the Activity of 15 µM of each peptide as percentage of insulin release by cells only (beta TC-6 cells) (% of insulin release by cells only) with GLP-1 receptor (mouse) is 358.

In the case of `CC[C@H](C)[C@H](NC(=O)[C@H](Cc1ccccc1)NC(=O)[C@H](CCC(=O)O)NC(=O)[C@H](CCCCN)NC(=O)[C@H](C)NC(=O)[C@H](C)NC(=O)[C@H](CCC(N)=O)NC(=O)CNC(=O)[C@H](CCC(=O)O)NC(=O)[C@H](CC(C)C)NC(=O)[C@H](Cc1ccc(O)cc1)NC(=O)[C@H](CO)NC(=O)[C@H](CO)NC(=O)[C@@H](NC(=O)[C@H](CC(=O)O)NC(=O)[C@H](CO)NC(=O)[C@@H](NC(=O)[C@H](Cc1ccccc1)NC(=O)[C@@H](NC(=O)CNC(=O)[C@H](CCC(=O)O)NC(=O)CNNC(=O)[C@@H](N)Cc1c[nH]cn1)[C@@H](C)O)[C@@H](C)O)C(C)C)C(=O)N[C@@H](C)C(=O)N[C@@H](Cc1c[nH]c2ccccc12)C(=O)N[C@@H](CC(C)C)C(=O)N[C@H](C(=O)N[C@@H](CCCCN)C(=O)NCC(=O)N[C@@H](CCCNC(=N)N)C(=O)NCC(=O)O)C(C)C` [SP006, L-His-NH-NH-CH2-C(O)-Glu9-37], in data set [1] (47 hr), the “percentage of peptide remaining” value came out at 88%. In addition, the fraction remaining at 22 h in data set [1] was 88%. On DPP-IV, the fraction remaining at 22 h worked out at 88% and the amount remaining at 47 h was found to be 87%. Also, in the data set on beta TC-6 cell line (3 μM peptide), the Insulin release was determined as 3.86 ng/min/mg and the “Activity of 3 μM of each peptide as percentage of insulin release by cells only” value is given as 154 ± 25%. Further, in the data set with beta TC-6 cell line (15 μM peptide), the Insulin release was determined as 8.88 ng/min/mg and the “Activity of 15 μM of each peptide as percentage of insulin release by cells only” value came to 330 ± 89%.
